“Also recorded” adds a separate entry of the source.
Columns and labels:
primary cortical neurons = assay: MPP+-induced neuronal death in primary cortical neurons (LDH release); assay type: cell-based, rat; details: 2 h pre-treatment, 200 μM MPP+ 24 h
Method: Primary culture of cortical neurons was prepared from embryonic day 18±0.5 Sprague-Dawley rats. One day after seeding, primary cortical neurons were treated with 10 and 30 μM BHDPC for 14 days. Fourteen days following BHDPC treatment, primary cortical neurons cultured on glass coverslips (Thermo Scientific) were fixed with 4% paraformaldehyde for 15 min. Following fixation, neurons were permeabilized with 0.1% Triton X-100 in Tris-buffered saline for 7 min, and blocked with 4% bovine serum albumin and 2% goat serum for 1 h. α-tubulin and MAP2 were incubated at 1:400 dilution for 1 h at room temperature and overnight at 4° C. respectively. Following primary antibody incubation, neurons were incubated with Alexa Flour 488 or 568 secondary antibodies (anti-rabbit or anti-mouse) at 1:400 dilution for 1 h at room temperature. […] Fluorescence intensity was measured using Image J.
Cell cytotoxicity was also determined by measuring the activity of LDH released into the incubation medium when cellular membranes were damaged. […] After treatment, the released LDH activity in the medium was measured according to the instructions of the Cytotoxicity Detection Kit (Roche Applied Science, Mannheim, Germany). Absorbance at 490 nm was measured using SpectraMax M5. […]
LDH release was measured at 24 hours after the MPP^+ challenge.

SH-SY5Y cells = assay: Cytotoxicity of BHDPC in SH-SY5Y cells (MTT assay); assay type: cell-based, human; details: BHDPC 3 to 30 μM, 24 h
Method: The human neuroblastoma SH-SY5Y cells were purchased from America Tissue Type Collection. The cells were maintained in DMEM medium supplemented with 10% fetal bovine serum and penicillin/streptomycin (100 U/mL; 100 μg/mL) in a 37° C., 5% CO2 incubator. All experiments were carried out 48 hours after the cells were seeded.
(§1) The percentage of surviving cells was estimated by determining the activity of mitochondrial dehydrogenases with 3(4,5-dimethylthiazol-2-yl)-2,5-diphenyltetrazolium bromide (MTT) assay. After drug treatment, cells were incubated at 37° C. for 4 h in 0.5 mg/mL MTT solution. The medium was then removed, and 100 μL of DMSO was added to each well to dissolve the violet formazan crystals. The absorbance of the samples was measured at a wavelength of 570 nm with 655 nm as a reference wavelength. All values were normalized to the control groups.
To evaluate the cytotoxicity of BHDPC, SH-SY5Y cells were incubated with various concentrations of BHDPC for 24 h and the cell viability was determined using MTT assay.

NIH mice = assay: Acute toxicity assay in NIH mice; assay type: in vivo; details: maximum dose, observed 14 days
Method: NIH mice, sex in half, for acute toxicity assay was supplied by Guangzhou Medicinal Experiment Animal Center and the animal qualification code was 44007200007090 and the certificate number was SCXK (Guangdong) 2013-0002. The animals were kept in the SPF-grade animal laboratory which was conformed to the SPF grade requirement of animal testing facility, where temperature was within the range of 22° C. (±2° C.) and the humidity was in the range of 30-70%. The diurnal lighting and darkness cycle was 12 hours. The air change per hour was in the range of 10-20 times. The approval no. of the SPF animal laboratory was SYXK (Guangdong) 2005-0062. The rat chow was the SPF-grade full pellet for mouse, which was bought from Guangdong Medicinal Laboratory Animal Center. The nutritional values and the sanitation condition were conformed to the SPF-grade requirement for animal testing. Antiseptic water were given ad libitum.
NIH mice were randomly divided into 6 groups. Ten NIH mice, sex in half, were assigned to for each group. […]

[1] = system: cerebellar granule neurons (CGNs); assay: MPP+-induced neurotoxicity in primary cerebellar granule neurons (MTT assay); assay type: cell-based, mice; details: 10 and 30 μM, 2 h pre-treatment, 40 μM MPP+ 24 h
Method: Cerebellar tissue slice were treated with 30 μM BHDPC with or without MPP^+ for 72 h and then were stained with PI.
as §1
Rat CGNs were prepared from 8-day-old Sprague-Dawley rats (The Animal Care Facility, The Hong Kong Polytechnic University) as described in our previous publication. Briefly, neurons were seeded at a density of 2.7×10^5 cells/ml in basal modified Eagle's medium (Invitrogen) containing 10% fetal bovine serum, 25 mM KCl, 2 mM glutamine, and penicillin (100 units/ml)/streptomycin (100 μg/ml). […]
To further confirm the effect of BHDPC on primary neurons, mice cerebellar granule neurons were treated with BHDPC at the indicated concentrations for 2 hours and then exposed to 40 μM MPP^+. Cell viability was measured by the MTT assay at 24 hours after the MPP^+ challenge.

Q: For `COc1cc(C2C(C(=O)OCc3ccccc3)=C(C)Nc3nnnn32)ccc1O` (centres unmarked) [BHDPC, benzyl 7-(4-hydroxy-3-methoxyphenyl)-5-methyl-4,7-dihydrotetrazolo[1,5-a]pyrimidine-6-carboxylate], which “MPP+-induced neuronal death (LDH release)” value (primary cortical neurons) is on record?
A: The value was “prevented MPP^+-induced neuronal death”.

Q: What about the “cytotoxicity (cell viability, MTT)” value (SH-SY5Y cells) of the same compound?
A: The value was “did not cause any cytotoxicity”.

Q: And the toxic effects (NIH mice; 5 mg/kg, iv)?
A: Its toxic effects is “no toxic effects were observed”.

Q: What about the toxic effects (NIH mice; 10 mg/kg, oral gavage) of the same compound?
A: The toxic effects was “no toxic effects were observed”.

Q: What about the “MPP+-induced neuronal death (cell viability, MTT)” value [1] of the same compound?
A: Its value is “reduced MPP^+-induced dopaminergic neuronal death; also recorded: prevented MPP^+-induced neuronal death”.

Source: patent US20160113931A1, “Method of treating and/or preventing neurodegenerative diseases” (University of Macau, priority 2014, published 2016)
